{
  "source": "patent US10449245B2",
  "about": "(priority 2014, dated 2019)",
  "key": {"HIV-1 [1]": {"system": "HIV-1", "test": "HIV transcription as cell-associated unspliced HIV-1 RNA in CD4+ T cells (digital droplet PCR), REDUC Part A", "assay_type": "in vivo, human", "conditions": "romidepsin 5 mg/m^2 i.v. days 0, 7, 14; for CA US HIV RNA, Mean: mean of subjects", "description": "Part A of the clinical study contained three phases. […] Second, a viral reactivation phase of 3 weeks (visit 2 to visit 7) consisting of one cycle of romidepsin infusions at a dosing of 5 mg/m^2 administered intravenously over a 4 hour period. De-escalation down to 2.5 mg/m^2 was planned in case of dose-limiting toxicity was observed. Romidepsin was infused on days 0, 7, and 14. Third, a post-activation phase of ˜9 weeks (visit 8 to visit 11) to assess the effect of romidepsin on the size of latent HIV-1I reservoir.\nHIV transcription was measured as copies of cell-associated unspliced HIV-1 RNA/106 CD4+ T cells using digital droplet PCR. CD4+ T-cells were isolated from PBMCs using Miltenyi Biotec negative bead separation kit (CD4 T cell isolation, #130-096-533) as described with LD separation columns, lysed (Lysis buffer from Qiagen DNA/RNA extraction kit), and stored ad −80° C. until extraction of RNA and DNA (Allprep isolation kit, Qiagen). Reverse transcription, amplification and quantitation of cell-associated unspliced HIV RNA from HIV patients was performed as follows. In summary, HIV unspliced RNA was detected on the BioRad QX100 droplet digital platform using a defined primer/probe set and related to total cell input by quantitation of the IPO8 (Importin 8) and TBP (Tata Binding Protein) gene transcription. A mixture of 11.5 μl patient extracted mRNA in nuclease-free dH, 1 μl 10 mM dNTP U1240 (Promega), 0.5 μl 3 μg/μl Random hexamers (Applied Biosystems) and 0.5 μl of 0.5 μg/μl Oligo(dT)12-18 Primer (Invitrogen) was prepared, incubated at 65° C. for 5 min, and then immediately on ice for 5 min. First-strand cDNA production was performed by adding a mixture of 4.0 μl 5× First Strand Buffer (Invitrogen), 1.0 μl 0.1M DTT (Invitrogen), 0.5 μl RNAseOUT RNAse inhibitor (40 U/μl, Invitrogen), 1.0 μl Superscript III Reverse Transcriptase (200 U/μl, Invitrogen) for a total reaction volume of 20 μl and incubating at 42° C. for 45 min, then 80° C. for 15 min in a PCR machine. The reaction was held at 4° C. or on ice until performing the downstream assay. […] To adjust for the total cellular input in each sample, relative copy numbers were normalized to two human endogenous control genes TBP PL (VIC) assay ID: Hs00183533_m1 and IPO8 (FAM) assay ID: Hs00427620_m1 (TaqMan gene expression assay, LifeTechnologies, Denmark). All HIV RT samples were run in six replicates while the reference genes were assayed in duplicate. The PCR reaction mixture was loaded into the BioRad QX-100 emulsification device fractionating each sample into 20,000 nanoliter-sized droplets following the manufacturer's instructions. PCR cycling conditions were as follows: 95° C. for 10 min, followed by 40 cycles of a 30 second denaturation at 95° C. followed by a 59° C. extension for 60 seconds and a final 10 minutes at 98° C. After cycling droplets were subsequently read automatically by the QX100 droplet reader (BioRad) and the data was analyzed with the QuantaSoft™ analysis software (BioRad)."}, "HIV-1 [2]": {"system": "HIV-1", "test": "Plasma HIV-1 RNA by transcription mediated amplification (TMA) NAT screen, REDUC Part A", "assay_type": "in vivo, human", "conditions": "for TMA assay, Percent positive: share of subjects positive; for TMA assay, Percent positive / TMA assay, presence of HIV RNA: romidepsin 5 mg/m^2 i.v. days 0, 7, 14; for TMA assay, presence of HIV RNA: individual subjects 1101, 1102, 1103, 1105, 1106, 1107 = c1-c6"}},
  "note": "Values joined by “and” are separate entries in the source; they are usually repeats but may differ in a detail not shown here. Equal entries are not always repeated.",
  "data": [
    {"smiles": "C/C=C1\\NC(=O)[C@H]2CSSCC/C=C/[C@H](CC(=O)N[C@H](C(C)C)C(=O)N2)OC(=O)[C@H](C(C)C)NC1=O", "note": "[romidepsin, (1S,4S,7Z,10S,16E,21R)-7-ethylidene-4,21-bis(1-methylethyl)-2-oxa-12,13-dithia-5,8,20,23-tetraazabicyclo[8.7.6]tricos-16-ene-3,6,9,19,22-pentone]", "values": [
      {"measurement": "CA US HIV RNA, Mean", "setting": "HIV-1 [1]; visit 10 (day 56)", "value": "13.8 HIV RNA copies/10^6 CD4+ T cel"},
      {"measurement": "CA US HIV RNA", "setting": "HIV-1 [1]; visit 11 (day 84), individual subjects 1101, 1102, 1103, 1105, 1106, 1107 = c1-c6", "value": "22.0 HIV RNA copies/10^6 CD4+ T cel and 32.7 HIV RNA copies/10^6 CD4+ T cel and 11.2 HIV RNA copies/10^6 CD4+ T cel and 8.0 HIV RNA copies/10^6 CD4+ T cel and 35.1 HIV RNA copies/10^6 CD4+ T cel and 12.2 HIV RNA copies/10^6 CD4+ T cel"},
      {"measurement": "CA US HIV RNA, Mean", "setting": "HIV-1 [1]; visit 11 (day 84)", "value": "20.2 HIV RNA copies/10^6 CD4+ T cel"},
      {"measurement": "TMA assay, Percent positive", "setting": "HIV-1 [2]; Visit 1 (day −21, pre-treatment)", "value": 50, "unit": "%"},
      {"measurement": "TMA assay, Percent positive", "setting": "HIV-1 [2]; Visit 2A (day 0, pre-treatment)", "value": 50, "unit": "%"},
      {"measurement": "TMA assay, Percent positive", "setting": "HIV-1 [2]; Visit 2B (day 0 + 4 h)", "value": 67, "unit": "%"},
      {"measurement": "TMA assay, Percent positive", "setting": "HIV-1 [2]; Visit 3 (day 1)", "value": 83, "unit": "%"},
      {"measurement": "TMA assay, Percent positive", "setting": "HIV-1 [2]; Visit 4 (day 3)", "value": 83, "unit": "%"},
      {"measurement": "TMA assay, Percent positive", "setting": "HIV-1 [2]; Visit 5A (day 7)", "value": 50, "unit": "%"},
      {"measurement": "TMA assay, Percent positive", "setting": "HIV-1 [2]; Visit 5B (day 7 + 4 h)", "value": 100, "unit": "%"},
      {"measurement": "TMA assay, Percent positive", "setting": "HIV-1 [2]; Visit 6 (day 10)", "value": 100, "unit": "%"},
      {"measurement": "TMA assay, Percent positive", "setting": "HIV-1 [2]; Visit 7A (day 14)", "value": 50, "unit": "%"},
      {"measurement": "TMA assay, Percent positive", "setting": "HIV-1 [2]; Visit 7B (day 14 + 4 h)", "value": 67, "unit": "%"},
      {"measurement": "TMA assay, Percent positive", "setting": "HIV-1 [2]; Visit 8 (day 17)", "value": 100, "unit": "%"},
      {"measurement": "TMA assay, Percent positive", "setting": "HIV-1 [2]; Visit 9 (day 21)", "value": 33, "unit": "%"},
      {"measurement": "Plasma HIV-1 RNA detection by transcription-mediated amplification assay", "setting": "HIV-1 [2]; post-infusion time-points compared with baseline", "value": "detected more frequently"},
      {"measurement": "TMA assay, presence of HIV RNA", "setting": "HIV-1 [2]; visit 1 (day −21, pre-treatment)", "value": "1 (3×) and 0 (3×)"},
      {"measurement": "TMA assay, presence of HIV RNA", "setting": "HIV-1 [2]; visit 2A (day 0, pre-treatment)", "value": "1 (3×) and 0 (3×)"},
      {"measurement": "TMA assay, presence of HIV RNA", "setting": "HIV-1 [2]; visit 2B (day 0 + 4 h)", "value": "1 (4×) and 0 (2×)"},
      {"measurement": "TMA assay, presence of HIV RNA", "setting": "HIV-1 [2]; visit 3 (day 1)", "value": "1 (5×) and 0"},
      {"measurement": "TMA assay, presence of HIV RNA", "setting": "HIV-1 [2]; visit 4 (day 3)", "value": "1 (5×) and 0"},
      {"measurement": "TMA assay, presence of HIV RNA", "setting": "HIV-1 [2]; visit 5A (day 7)", "value": "1 (3×) and 0 (3×)"},
      {"measurement": "TMA assay, presence of HIV RNA", "setting": "HIV-1 [2]; visit 5B (day 7 + 4 h)", "value": 1},
      {"measurement": "TMA assay, presence of HIV RNA", "setting": "HIV-1 [2]; visit 6 (day 10)", "value": 1},
      {"measurement": "TMA assay, presence of HIV RNA", "setting": "HIV-1 [2]; visit 7A (day 14)", "value": "1 (3×) and 0 (3×)"},
      {"measurement": "TMA assay, presence of HIV RNA", "setting": "HIV-1 [2]; visit 7B (day 14 + 4 h)", "value": "1 (4×) and 0 (2×)"},
      {"measurement": "TMA assay, presence of HIV RNA", "setting": "HIV-1 [2]; visit 8 (day 17)", "value": 1},
      {"measurement": "TMA assay, presence of HIV RNA", "setting": "HIV-1 [2]; visit 9 (day 21)", "value": "0 (4×) and 1 (2×)"}
    ]}
  ]
}
